Experimental data published in PMC12124432, “Antimicrobial Peptide‐Peptoid Macrocycles from the Polymyxin B2 Chemical Space” (Angewandte Chemie (International Ed. in English), 2025).
≈ marks a conversion by molar mass, not a printed value. Each block holds one compound with its values, some of them ahead of it. Bridge positions count the residues as written; N and C are the ends. Square brackets hold non-standard residues; d marks the D form. Peptide text beside a SMILES is read from it. * marks the point of attachment. Heptanoyl(6-Me) = CC(C)CCCCC(=O)*; Dab = NCC[C@H](N)C(=O)O

Assays:
[1] = system: P. aeruginosa PAO1; type: cell-based, Pseudomonas aeruginosa; conditions: PAO1, pH 8.5
Experimental: (§1) Minimal Inhibitory Concentration (MIC)
(§2) Antimicrobial activity was assayed for all the peptide-peptoids against P. aeruginosa PAO1, K. pneumoniae NCTC418, E. coli W3110, A. baumannii ATCC 19606, methicillin-resistant S. aureus COL (MRSA) and for selected peptides on P. aeruginosa PA14, as well as the clinical isolates ZEM-1A and ZEM9A, K. pneumoniae OXA-48, Enterobacter cloacae, Stenotrophomonas maltophilia and Staphylococus epidermidis. To determine the Minimal Inhibitory Concentration (MIC), Broth Microdilution method was used. A colony of bacteria was picked and grown in LB medium overnight at 37 °C. The next day, the culture was then regrown in LB medium to log phase (OD600 = 0.6 to 0.8), which lasted approximately 4 hours, and diluted to an OD600 of 0.022 in the desired medium (full MH or 12.5% MH).
(§3) The compounds were prepared as stock solutions of 2 mg/mL in sterilized MilliQ deionized water and then diluted in the desired media (full MH or 12.5% MH) to reach the first concentration tested (32 μg/mL). The compounds were added to the first well of a 96-well sterile, round bottom microtiter plates in polystyrene (TPP®, untreated) and diluted serially by ½ in the desired media (full MH or 12.5% MH), to a final volume of 150 µL/well. To each well was finally added 4 µL of the diluted bacterial suspension (see above), corresponding to approximately 5×10^5 CFU. For each test, two columns of the plate were kept for sterility control (medium only), growth control (medium with bacterial inoculum, no compound). The positive control, Polymyxin B (starting with a concentration of 16 µg/mL) in MH medium with bacterial inoculums, was introduced in the two first lines of the plate. The plates were incubated at 37 °C for ca. 18 hours under static conditions. 15 µL of 3-(4,5-dimethylthiazol-2-yl)-2,5-diphenyltetrazolium bromide (MTT)[7] (1 mg/mL in sterilized MilliQ deionized water) were added to each well and the plates were incubated for 20-30 minutes at room temperature. The […]
(§4) minimal inhibitory concentration (MIC) was defined as the lowest concentration of the compound that inhibits the visible growth of the tested bacteria (yellow) with the unaided eye.
(§5) Minimal Hemolytic Concentration (MHC) […]
(§6) 11. Minimal inhibitory in presence of salt
The same procedure as for the antibacterial activity measurements by minimal inhibitory concentration assay (MIC) was applied. The media, 12.5% Mueller-Hinton broth was this time supplemented with different salt concentrations (0, 100, 200 300 mM NaCl). The MIC activities were then determined against Pseudomonas aeruginosa PAO1 and Escherichia coli […]
Table S6. Minimal inhibitory concentration (MIC) on P. aeruginosa PAO1 as function of salt […]
(§7) All data, in μg/mL, measured against P. aeruginosa PAO1, with or without addition of salt (NaCl). The values were measured in dilute medium (12.5% MH) and at slightly basic pH (pH = 8.5), after incubation for 16-20 h at 37 °C. Values represent two different duplicate MIC determinations.

[2] = system: E. coli W3110; type: cell-based, Escherichia coli; conditions: W3110, pH 8.5
Experimental: as §1, §2, §3, §4, §5, §6
The same procedure as for the antibacterial activity measurements by minimal inhibitory concentration assay (MIC) was applied. The media, 12.5% Mueller-Hinton broth was this time supplemented with different salt concentrations (0, 100, 200 300 mM NaCl). […]
as §7

[3] = system: E. coli W3110, P. aeruginosa PAO1, S. aureus COL (MRSA), A. baumannii ATCC19606, K. pneumoniae NCTC418; assay: MIC of macrocycles versus their linearized analogs (Table S4 panel); type: cell-based; conditions: Table S4, 12.5% MH pH 7.4
Experimental: as §1
as §2, with “MH). […]” for “MH).”
To determine the minimal hemolytic concentration (MHC), stock solutions of 8 mg/mL of the peptide in sterilized MilliQ water deionized were prepared and 50 μL were diluted serially by ½ in 50 μL PBS (pH 7.4) in 96-well plate (Costar or Nunc, polystyrene, untreated). […] Minimal hemolytic concentration (MHC) end points were determined by visual determination of the wells after the incubation period. […]

[4] = system: human red blood cells; assay: Minimal hemolytic concentration (MHC); type: cell-based; conditions: pH 7.4, 25 °C, 4 h
Experimental: as §4
Minimal Hemolytic Concentration (MHC)
To determine the minimal hemolytic concentration (MHC), stock solutions of 8 mg/mL of the peptide in sterilized MilliQ water deionized were prepared and 50 μL were diluted serially by ½ in 50 μL PBS (pH 7.4) in 96-well plate (Costar or Nunc, polystyrene, untreated). Human red blood cells (hRBC) were obtained by centrifugation of 1.5 mL of whole blood, from the blood bank of Bern, at 3000 rpm for 15 minutes at 4 °C. Plasma was discarded and the pellet was re-suspended in a 15 mL Falcon tube in 5 mL of PBS. The washing was repeated three times, and the remaining pellet was re-suspended in 10 mL of PBS at a final hRBC concentration of 5%. The hRBC suspension (50 μL) was added to each well and the plate was incubated at room temperature for 4 hours. Minimal hemolytic concentration (MHC) end points were determined by visual determination of the wells after the incubation period.
Controls on each plate included a blank medium control (50 μL PBS + 50 μL of hRBC suspension) and a hemolytic activity control t-octylphenoxypolyethoxyethanol (Triton-X100) (1 % in MilliQ-deionized water) 50 μL + 50 μL hRBC suspension).
Table S3. […]

[5] = Dansyl-polymyxin (DsPMB) displacement assay; type: binding, Pseudomonas aeruginosa; conditions: 37 °C, 2.5 µM DsPMB, LPS 3 μg/mL, emission 485 nm; mean ± SD, n = 3
Experimental: 14. Dansyl-Polymyxin (DsPMB) Displacement Assay
Saturation determination. Dansyl-polymyxin (DsPMB) in water (1.5 mg/mL) and lyophilized lipopolysaccharides from P. aeruginosa were obtained from Merck. LPS were prepared as a 1 mg/mL stock solution in mQ water and stored at 4 °C. The fluorescence saturation of DsPMB with LPS was first determined, by titration (0.25 μM increments, up to 5 μM) of the DsPMB into a 3 μg/mL of LPS (10 mM Tris, 10 mM NaCl buffer, pH 7.4), at 37 °C. The fluorescence was recorded with a Jasco spectrofluorometer FP-8300, with the excitation at λex = 340 nm (5 nm slit width) and recorded from 420 to 650 nm. The fluorescence was recorded two minutes after each addition. Saturation was graphically determined, at a concentration of D sPMB ≈ 2.5 μM (λem = 485 nm). Each measurement was determined in triplicates.
Displacement assay. The displacement effect of the various peptides was determined by measuring the reduction of fluorescence intensity, at 37 °C. Initially, DsPMB (2.5 μM) was mixed with LPS (3 μg/mL) and let it react for 15 minutes before recording the fluorescence […]
intensity (at λem = 485 nm and λex = 340 nm). Then, the peptide was titrated (1 μM increments, up to 10 μM) into the DsPMB/LPS mixture, and the fluorescence was recorded two minutes after the compound addition. The decrease in fluorescence was interpreted as the displacement of DsPMB from the LPS due to competitive binding by the peptide.[12,13] Specific Fluorescence Enhancement
Figure S8. Fluorescence emission of dansyl-polymyxin (DsPMB) in presence of lipopolysaccharide (LPS) extracted from P. aeruginosa (3 µg/mL) in TRIS/NaCl buffer (10 mM, pH 7.4). The fluorophore was excited at 340 nm (5 nm slit width) and recorded from 420 to 650 nm. The data represent mean value from three measurement. Specific fluorescence represents the emission of DsPMB with the non-specific fluorescence (no LPS) deduced.

[6] = Serum stability assay; type: in vitro ADME; conditions: human serum 12.5% in 0.1 M Tris buffer pH 7.4, 37 °C, 200 µM peptide, time points 0/1/6/10/24 h, triplicates, LC(-MS), 4-hydroxybenzoic acid internal standard
Experimental: Human serum was diluted in 0.1 M filtered TRIS buffer pH 7.4 (25%, 1:3, v/v). Selected hybrids were diluted in 0.1 M filtered TRIS buffer pH 7.4 to a concentration of 400 μM and 0.1 mg/mL of 4-hydroxybenzoic acid was added as internal standard. Aliquots of peptide solution (50 μL) were added to aliquots of serum (50 uL) in sterile Eppendorf tubes, to reach a peptide concentration of 200 μM during the assay. Samples were incubated at 37 °C under gentle stirring (350 rpm). Different samples (triplicates) were quenched at different time points (0 / 1 / 6 / 10 / 24 h) by precipitating serum proteins through the addition of 100 μL of a solution ZnSO4·7 H2O (0.05 mM) in water/ACN (1:1) and cooling in ice bath for 10 minutes.
Protein precipitates were pelleted under centrifugation (5 min at 14’000 rpm) and the supernatants were analysed by LC-MS. Experiment controls included a precipitation control for each peptide to test their resistance to the protein precipitation conditions and serum blanks to check reproducibility over different serum batches. Peaks corresponding to the internal standard and the undegraded peptides were integrated, with the ratio peptide/standard at t = 0 h as 100 % undegraded peptide.
Cell Culture Conditions. […]

MIC on P. aeruginosa, 0 mM NaCl [1]: 0.5 µg/mL (≈ 0.42 µM)
MIC on P. aeruginosa, 100 mM NaCl [1]: 0.25 µg/mL (≈ 0.21 µM)
MIC on P. aeruginosa, 200 mM NaCl [1]: 0.25 µg/mL (≈ 0.21 µM)
MIC on P. aeruginosa, 300 mM NaCl [1]: 0.25 µg/mL (≈ 0.21 µM)
MIC on E. coli, 0 mM NaCl [2]: 0.25 µg/mL (≈ 0.21 µM)
MIC on E. coli, 100 mM NaCl [2]: 0.25 µg/mL (≈ 0.21 µM)
MIC on E. coli, 200 mM NaCl [2]: 0.25 µg/mL (≈ 0.21 µM)
MIC on E. coli, 300 mM NaCl [2]: 0.25 µg/mL (≈ 0.21 µM)
Compound: CC(C)CCCCC(=O)N[C@@H](CCN)C(=O)N[C@H](C(=O)N[C@@H](CCN)C(=O)N[C@H]1CCNC(=O)[C@H]([C@@H](C)O)NC(=O)[C@H](CCN)NC(=O)[C@H](CCN)NC(=O)[C@H](CC(C)C)NC(=O)[C@@H](Cc2ccccc2)NC(=O)[C@H](CCN)NC1=O)[C@@H](C)O [PMB2, polymyxin B2] ({Heptanoyl(6-Me)}-[Dab]T[Dab][Dab][Dab][dF]L[Dab][Dab]T; lactam 4-C)

Compound: FA4-Val-C2-A1-Ala-Lys-Gly-Lys-C3-Lys [EB13lin, linearized analog of EB13]
Loss of activity of linearized analog relative to macrocyclic parent [3]: between two‐fold and eight‐fold less active

Compound: FA5-A3-Lys-Asn-Ala-Lys-H2-Lys-C3-Lys [EB12lin, linearized analog of EB12]
Loss of activity of linearized analog relative to macrocyclic parent [3]: between two‐fold and eight‐fold less active

Compound: FA7-H4-C3-A6-Dab(*)-C2-Lys-Ser-Lys-C1-Lys-* (lariat or depsi) [EB33, hemolytic peptide-peptoid macrocycle, PDGA-generated PMB2 analog]
Hemolysis of red blood cells relative to PMB2 [4]: slightly more hemolytic than PMB2
Binding to lipopolysaccharide (dansyl-PMB fluorescence displacement) [5]: an even stronger signal

Compound: FA10-A3-Lys-C2-Dab(*)-Asn-C2-Lys-Val-Lys-* (lariat or depsi) [EB18, peptide-peptoid macrocycle, PDGA-generated PMB2 analog]
Stability against proteolysis in human serum (undegraded peptide) [6]: did not show any significant degradation in human serum
